Experimental findings from US20060194819A1, “Activation specific inhibitors of nf-kb and method of treating inflammatory processes in cardio-vascular diseases” (PROCORDE GMBH, priority 2003, published 2006) are described below.

The term IC50 denotes the concentration that inhibits the measured activity by half.

One data set in a line: Solubility in PBS. The format is physicochemical.
In another data set the target is T1, IKK-complex (Homo sapiens, UniProt O14920+O15111+Q9Y6K9).
T1 construct: IKK-complex was immunoprecipitated with anti-NEMO-antibody; endogenous in cells; host or cells: HeLa
Description: Cellular IKK kinase assay: HeLa cells treated with compound, TNF alpha stimulation, IKK-complex immunoprecipitated with anti-NEMO-antibody, I kappaB peptide phosphorylation by alpha screen. The format is cell-based. The note with it: HeLa cells, compound 1 h, TNF alpha 20 ng/ml, alpha screen; read-out: IC50 for inhibition of IKK-activity (I kappaB peptide phosphorylation). The protocol: Kinase Assay Protocol: HeLa cells were maintained in Dulbecco's modified Eagle's medium (Invitrogen) supplemented with 10% fetal bovine serum, 2 mM L-glutamine, penicillin (50 units/ml) and streptomycin (50 μg/ml). 24 h before treatment with different compounds HeLa cells were plated at a density of 5×10^6 per well in 100-mm cell culture dishes to 90% confluences.
The cells were incubated with different drugs at the concentration indicated for 1 h, washed twice with PBS and stimulated with 20 ng/ml TNF alpha (Roche). After 7 min the cells were washed twice with ice cold PBS followed by scraping and transferring into a 1.5 ml microcentrifuge tube. After centrifugation by 2000 rpm for 2 min by 4° C. the PBS supernatant was removed and 200 μl Lyse-buffer (10 mM Hepes, pH 7.9, 0.1% NP40, 10 mM, 300 mM Sucrose, 10 mM KCl, 15 mM MgCl2, 1 mM DTT, 0.5 mM PMSF and antipain, aprotinin, leupeptin each 0.75 μg/ml (Sigma) was added to the pellet. The resuspended pellet was incubated on ice for 5 min and centrifuged at 13000 g for 30 s. The supernatant, cytosolic extract, was added to 200 μl TNT-buffer (200 mM NaCl, 20 mM Tris/HCl pH 7.5, 1% Triton X-100). Unspecific binding was blocked by incubation with 3 μg of normal rabbit IgG (Sigma) and 6 mg resuspended and prewashed Protein A Sepharose CI-4B (Pharmacia Biotech) for 30 min by 4° C. followed by immunoprecipitation for 1.5 h at 4° C. with 2 μg of anti-NEMO-antibody (Santa Cruz Biotechnology) and 6 mg resuspented and prewashed Protein A Sepharose CI-4B (Parmacia Biotech). […] 6.6 μl of detection-buffer (20 mM Hepes pH 7.5, 100 mM NaCl, 1% Tween, 0.1 mM BSA, 50 μg/ml Protein A-Acceptor beads, 250 μg/ml Streptavidin-Donor beads (both Perkin-Elmer), 4 nM anti-phospho-IKB antibody (Santa Cruz Biotechnology) was dispensed to each well. After incubation for 1.5 h the plate was measured by alpha screen reader (Perkin Elmer). […]

Structures are written as SMILES.

T1 sequence (O14920 whole entry): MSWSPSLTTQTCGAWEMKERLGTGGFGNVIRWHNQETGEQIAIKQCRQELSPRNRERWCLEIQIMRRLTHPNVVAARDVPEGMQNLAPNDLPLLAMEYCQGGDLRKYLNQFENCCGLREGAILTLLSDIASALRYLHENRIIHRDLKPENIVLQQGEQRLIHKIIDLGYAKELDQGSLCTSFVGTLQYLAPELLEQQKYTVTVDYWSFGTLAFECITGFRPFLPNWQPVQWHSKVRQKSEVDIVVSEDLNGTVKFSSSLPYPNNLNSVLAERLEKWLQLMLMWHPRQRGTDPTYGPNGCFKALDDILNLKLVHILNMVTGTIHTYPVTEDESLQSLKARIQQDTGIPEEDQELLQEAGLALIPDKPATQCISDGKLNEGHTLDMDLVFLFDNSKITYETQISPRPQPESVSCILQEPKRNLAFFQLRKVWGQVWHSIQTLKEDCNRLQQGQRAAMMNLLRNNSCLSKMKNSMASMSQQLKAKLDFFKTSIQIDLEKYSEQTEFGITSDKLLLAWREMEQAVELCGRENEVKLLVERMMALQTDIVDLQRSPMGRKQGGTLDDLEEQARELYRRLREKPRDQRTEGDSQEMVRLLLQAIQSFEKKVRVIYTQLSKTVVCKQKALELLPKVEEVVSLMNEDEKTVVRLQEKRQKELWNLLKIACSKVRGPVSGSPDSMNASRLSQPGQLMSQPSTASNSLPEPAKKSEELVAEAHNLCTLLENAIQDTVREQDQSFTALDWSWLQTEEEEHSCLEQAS
T1 sequence (O15111 whole entry): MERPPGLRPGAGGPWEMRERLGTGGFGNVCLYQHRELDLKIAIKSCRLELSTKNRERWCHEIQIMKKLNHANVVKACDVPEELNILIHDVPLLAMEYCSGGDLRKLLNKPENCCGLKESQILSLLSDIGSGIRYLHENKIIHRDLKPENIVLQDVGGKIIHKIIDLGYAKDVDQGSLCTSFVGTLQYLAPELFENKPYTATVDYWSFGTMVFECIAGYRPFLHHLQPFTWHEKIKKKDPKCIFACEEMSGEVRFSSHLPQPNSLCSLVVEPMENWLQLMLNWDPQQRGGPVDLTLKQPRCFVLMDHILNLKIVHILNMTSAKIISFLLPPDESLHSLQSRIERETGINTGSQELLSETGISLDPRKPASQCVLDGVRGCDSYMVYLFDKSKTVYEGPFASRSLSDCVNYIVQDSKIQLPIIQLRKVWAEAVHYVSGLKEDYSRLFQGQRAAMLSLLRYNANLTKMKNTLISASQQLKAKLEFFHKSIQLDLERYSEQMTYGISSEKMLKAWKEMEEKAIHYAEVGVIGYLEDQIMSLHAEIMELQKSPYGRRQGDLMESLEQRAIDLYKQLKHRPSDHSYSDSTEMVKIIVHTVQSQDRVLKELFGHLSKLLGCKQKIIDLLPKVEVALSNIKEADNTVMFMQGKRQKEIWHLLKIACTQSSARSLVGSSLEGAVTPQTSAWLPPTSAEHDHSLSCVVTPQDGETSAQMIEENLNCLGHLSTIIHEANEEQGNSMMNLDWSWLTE
T1 sequence (Q9Y6K9 whole entry): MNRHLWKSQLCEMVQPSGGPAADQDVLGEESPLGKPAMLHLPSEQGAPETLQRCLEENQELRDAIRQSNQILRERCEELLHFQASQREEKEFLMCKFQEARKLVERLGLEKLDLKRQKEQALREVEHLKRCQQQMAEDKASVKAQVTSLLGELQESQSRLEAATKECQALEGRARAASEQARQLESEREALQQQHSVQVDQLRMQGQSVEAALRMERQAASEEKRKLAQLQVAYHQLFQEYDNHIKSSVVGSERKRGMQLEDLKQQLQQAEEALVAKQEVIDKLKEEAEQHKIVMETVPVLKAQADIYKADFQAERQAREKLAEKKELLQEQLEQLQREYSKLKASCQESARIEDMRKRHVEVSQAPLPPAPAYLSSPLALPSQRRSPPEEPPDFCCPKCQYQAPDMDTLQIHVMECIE

With `CCC(=O)C1=C(C)N=c2s/c(=C/c3cc(C)c(OCc4ccccc4Cl)c(I)c3)c(=O)n2C1c1ccc2c(c1)OCO2` (centres unmarked) [Compound 41], in the data set “Solubility in PBS”, the “solubility in PBS” value is “only partly soluble”. The IC50 at IKK-complex fell in the range of 10 to 100 µM.
